This is an account of results in PMC3433420 (PLoS ONE, 2012).

One assay concerns the target BLK SH2 domain (Homo sapiens, UniProt P51451). The assay can be described thus: FP saturation binding assay.
A further assay concerns the target LCP2 SH2 domain (Homo sapiens, UniProt Q13094). The assay can be described thus: FP saturation binding assay.
The target of a further assay is PIK3R2-N SH2 domain (Homo sapiens, UniProt O00459). As to the kind of experiment: FP saturation binding assay.
In the next assay the target is SH2D2A SH2 domain (Homo sapiens, UniProt Q9NP31). As to the kind of experiment: FP saturation binding assay.
SH2D2A SH2 domain, sequence (Q9NP31 95-186 limits assumed): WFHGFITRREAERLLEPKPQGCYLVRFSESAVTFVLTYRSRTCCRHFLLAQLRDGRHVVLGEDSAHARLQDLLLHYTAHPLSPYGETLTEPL
For another assay, the target named is T1, SH2 and PTB domains (Homo sapiens, UniProt P43403).
T1 construct: thioredoxin; made in house; host or cells: BL21(DE3)pLysS E. coli
T1 sequence (P43403 1-619): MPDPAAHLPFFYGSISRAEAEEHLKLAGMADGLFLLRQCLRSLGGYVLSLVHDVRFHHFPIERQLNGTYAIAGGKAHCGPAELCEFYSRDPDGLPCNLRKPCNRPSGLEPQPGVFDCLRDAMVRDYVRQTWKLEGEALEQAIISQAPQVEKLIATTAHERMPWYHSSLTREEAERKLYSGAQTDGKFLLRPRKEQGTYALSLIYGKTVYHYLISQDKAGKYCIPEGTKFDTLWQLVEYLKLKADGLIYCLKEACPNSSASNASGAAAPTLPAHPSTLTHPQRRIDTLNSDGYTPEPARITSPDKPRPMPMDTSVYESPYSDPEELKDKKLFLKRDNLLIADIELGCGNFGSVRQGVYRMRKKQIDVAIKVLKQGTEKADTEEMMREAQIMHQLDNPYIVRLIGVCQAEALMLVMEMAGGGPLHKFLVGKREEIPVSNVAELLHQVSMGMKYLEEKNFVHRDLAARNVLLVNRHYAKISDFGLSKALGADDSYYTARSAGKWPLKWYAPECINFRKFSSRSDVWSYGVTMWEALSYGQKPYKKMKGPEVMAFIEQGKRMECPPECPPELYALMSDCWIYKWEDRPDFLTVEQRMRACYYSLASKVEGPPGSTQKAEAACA
As to the kind of experiment: In-house protein microarrays (with or without 5 mM DTT), protein named per line. It is filed as binding. The gist of the method: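 Recombinant domains (~40 µM) spotted in duplicate on aldehyde slides, quenched 1 h at room temperature in HEPES/KCl/Tween-20 buffer pH 7.8 with 5 mM DTT and 1% BSA, then probed with rhodamine-labeled peptide. Thioredoxin-subtracted mean fluorescence fitted for KD.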

Another assay addresses BLNK SH2 domain (Homo sapiens, UniProt Q8WV28). The assay can be described thus: FP saturation binding assay.
For another assay, the target named is NCK2 SH2 domain (Homo sapiens, UniProt O43639). The assay can be described thus: FP saturation binding assay.
NCK2 SH2 domain, sequence (O43639 285-380 limits assumed): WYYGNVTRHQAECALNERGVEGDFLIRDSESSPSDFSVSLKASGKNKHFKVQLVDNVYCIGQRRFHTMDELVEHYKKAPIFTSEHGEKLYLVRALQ
Another assay addresses GRB7 SH2 domain (Homo sapiens, UniProt Q14451). The arrangement: 6X His; thioredoxin; made in house; host or cells: E. coli BL21(DE3)pLysS. To be noted: previous protein microarray data, Figure S5; cited from earlier work.
A further assay concerns the target VAV1 SH2 domain (Homo sapiens, UniProt P15498). As to the kind of experiment: FP saturation binding assay.
Assay [1] addresses SYK-NC tandem SH2 domains (Homo sapiens, UniProt P43405). As to the kind of experiment: FP saturation binding assay.
The target in another assay is T2, HSH2D SH2 domain (Homo sapiens, UniProt Q96JZ2).
T2 sequence (Q96JZ2 34-125 limits assumed): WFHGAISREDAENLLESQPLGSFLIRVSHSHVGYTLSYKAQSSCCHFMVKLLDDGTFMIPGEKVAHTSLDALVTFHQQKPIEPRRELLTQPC
The assay can be described thus: FP saturation binding assay.

The target in another assay is SHC1 SH2 domain (Homo sapiens, UniProt P29353). The assay can be described thus: FP saturation binding assay.
SHC1 SH2 domain, sequence (P29353 488-579 limits assumed): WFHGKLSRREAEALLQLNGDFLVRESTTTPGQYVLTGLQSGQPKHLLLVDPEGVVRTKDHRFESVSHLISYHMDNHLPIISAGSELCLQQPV
The target in another assay is GRB2 SH2 domain (Homo sapiens, UniProt P62993). The assay can be described thus: FP saturation binding assay.
GRB2 SH2 domain, sequence (P62993 60-152 limits assumed): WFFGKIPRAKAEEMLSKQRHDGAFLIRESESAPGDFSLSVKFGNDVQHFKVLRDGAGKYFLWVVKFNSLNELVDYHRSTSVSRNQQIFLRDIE

Residues, ends and D or L forms follow the SMILES beside them.

PIK3R2-N SH2 domain, sequence (O00459 330-425 limits assumed): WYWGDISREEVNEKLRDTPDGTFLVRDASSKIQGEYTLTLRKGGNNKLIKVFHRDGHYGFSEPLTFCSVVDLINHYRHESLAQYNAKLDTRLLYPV
LCP2 SH2 domain, sequence (Q13094 422-530 limits assumed): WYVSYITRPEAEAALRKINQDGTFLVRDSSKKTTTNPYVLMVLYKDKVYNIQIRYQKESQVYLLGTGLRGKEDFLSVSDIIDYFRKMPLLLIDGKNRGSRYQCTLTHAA
VAV1 SH2 domain, sequence (P15498 671-765 limits assumed): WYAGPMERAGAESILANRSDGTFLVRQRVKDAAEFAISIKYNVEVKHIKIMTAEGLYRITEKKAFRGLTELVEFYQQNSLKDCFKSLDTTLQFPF
BLNK SH2 domain, sequence (Q8WV28 346-453 limits assumed): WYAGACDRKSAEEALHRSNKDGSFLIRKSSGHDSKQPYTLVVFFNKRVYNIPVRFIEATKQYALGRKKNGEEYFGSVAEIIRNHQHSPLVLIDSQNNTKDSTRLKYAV
GRB7 SH2 domain, sequence (Q14451 431-527 limits assumed): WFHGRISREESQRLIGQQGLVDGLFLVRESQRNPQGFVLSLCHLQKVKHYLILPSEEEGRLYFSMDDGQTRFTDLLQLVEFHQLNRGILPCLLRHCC
BLK SH2 domain, sequence (P51451 124-220 limits assumed): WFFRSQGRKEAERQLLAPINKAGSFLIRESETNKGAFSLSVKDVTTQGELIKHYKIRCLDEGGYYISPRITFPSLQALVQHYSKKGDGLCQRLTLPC

As for `CC(C)C[C@H](NC(=O)[C@H](CC(N)=O)NC(=O)[C@@H](N)CC(=O)O)C(=O)N[C@@H](Cc1ccc(O)cc1)C(=O)N[C@@H](Cc1ccc(OP(=O)(O)O)cc1)C(=O)N[C@@H](Cc1c[nH]c2ccccc12)C(=O)N[C@@H](CC(=O)O)C(=O)N[C@@H](CCC(N)=O)C(=O)N[C@@H](CC(=O)O)C(=O)N1CCC[C@H]1C(=O)N1CCC[C@H]1C(=O)N[C@@H](CCC(=O)O)C(=O)N[C@@H](CC(=O)O)C(=O)O` [ErbB2 1222 13-mer] (HELM PEPTIDE1{D.N.L.Y.[O=C([C@H](Cc1ccc(OP(=O)(O)O)cc1)N[*:1])[*:2]].W.D.Q.D.P.P.E.D}$$$$V2.0), the Kd on BLK SH2 domain stood at 10.9 µM; on LCP2 SH2 domain it was 11.7 µM.

With `CC(C)[C@H](NC(=O)[C@H](CC(=O)O)NC(=O)[C@@H]1CCCN1C(=O)[C@H](CCC(N)=O)NC(=O)[C@H](CC(N)=O)NC(=O)[C@@H](NC(=O)[C@H](Cc1ccc(OP(=O)(O)O)cc1)NC(=O)[C@H](CCC(=O)O)NC(=O)[C@@H]1CCCN1C(=O)[C@H](CCC(N)=O)NC(=O)[C@@H]1CCCN1)C(C)C)C(=O)N[C@@H](CCCNC(=N)N)C(=O)N[C@@H](CC(=O)O)C(=O)O` [ErbB2 1139 13-mer] (HELM PEPTIDE1{P.Q.P.E.[O=C([C@H](Cc1ccc(OP(=O)(O)O)cc1)N[*:1])[*:2]].V.N.Q.P.D.V.R.D}$$$$V2.0), the dissociation constant Kd came to 2.2 µM at PIK3R2-N SH2 domain and 4.8 µM at SH2D2A SH2 domain.

With `CC[C@H](C)[C@H](NC(=O)[C@H](CC(N)=O)NC(=O)[C@H](CC(N)=O)NC(=O)[C@H](CCCCN)NC(=O)[C@H](CC(C)C)NC(=O)[C@H](Cc1ccc(OP(=O)(O)O)cc1)NC(=O)[C@H](CCC(=O)O)NC(=O)[C@H](C)NC(=O)[C@H](CCCCN)NC(=O)CNC(=O)[C@H](CC(C)C)NC(=O)[C@@H](NC(=O)[C@H](CC(N)=O)NC(=O)[C@H](C)NC(=O)[C@@H](N)Cc1ccccc1)[C@@H](C)O)C(=O)N[C@@H](CC(C)C)C(=O)N[C@@H](CO)C(=O)N[C@@H](CC(=O)O)C(=O)O` [ErbB4 pY1221 (18-mer)] (HELM PEPTIDE1{F.A.N.T.L.G.K.A.E.[O=C([C@H](Cc1ccc(OP(=O)(O)O)cc1)N[*:1])[*:2]].L.K.N.N.I.L.S.D}$$$$V2.0), the “Kd” value at SH2 and PTB domains (protein ZAP70-C, PM assay replicate # 39352, array fabrication # 39336) came to 0.79 µM.

Turning to `CC(C)C[C@H](NC(=O)[C@@H]1CCCN1C(=O)[C@H](C)NC(=O)[C@@H](NC(=O)[C@H](Cc1ccc(OP(=O)(O)O)cc1)NC(=O)CNC(=O)[C@H](CC(=O)O)NC(=O)[C@@H](NC(=O)[C@@H](N)CCC(=O)O)[C@@H](C)O)C(C)C)C(=O)N[C@H](C(=O)N[C@@H](CS)C(=O)N[C@@H](CO)C(=O)N[C@@H](CC(=O)O)C(=O)O)[C@@H](C)O` [ErbB2 pY1127], the “Kd” value on SH2 and PTB domains (protein ZAP70-NC, PM assay replicate # 39336, array fabrication # 39329) was found to be 2.41 µM; on SH2 and PTB domains (protein ZAP70-NC, PM assay replicate # 39337, array fabrication # 39329) it was 2.01 µM.

`CSCC[C@H](NC(=O)[C@H](Cc1ccc(OP(=O)(O)O)cc1)NC(=O)[C@H](CCC(=O)O)NC(=O)[C@H](Cc1ccc(O)cc1)NC(=O)CNC(=O)[C@@H](N)CC(C)C)C(=O)N[C@@H](CC(=O)O)C(=O)N[C@H](C(=O)NCC(=O)N[C@@H](CO)C(=O)N[C@@H](CC(=O)O)C(=O)N[C@@H](CC(C)C)C(=O)N[C@@H](CC(=O)O)C(=O)O)C(C)C` [ErbB3 1224 13-mer] (HELM PEPTIDE1{L.G.Y.E.[O=C([C@H](Cc1ccc(OP(=O)(O)O)cc1)N[*:1])[*:2]].M.D.V.G.S.D.L.D}$$$$V2.0): the Kd on BLNK SH2 domain was determined as 3.63 µM; on NCK2 SH2 domain it was 4.6 µM.

Turning to “DNLYpYWDQDPPEd [ErbB2 pY1222, N-terminally rhodamine-labeled 13-mer phosphopeptide]”, the “interaction with GRB7 on the PM platform” value on GRB7 SH2 domain is on record as “only displayed interactions with GRB7 from the PM platform”.

Regarding `CSCC[C@H](NC(=O)[C@H](Cc1ccc(OP(=O)(O)O)cc1)NC(=O)CNC(=O)[C@H](CCC(=O)O)NC(=O)[C@H](CCC(=O)O)NC(=O)[C@H](CC(=O)O)NC(=O)[C@H](CC(C)C)NC(=O)[C@H](CCC(=O)O)NC(=O)CNC(=O)[C@H](CCCNC(=N)N)NC(=O)[C@@H]1CCCN1)C(=O)N[C@H](C(=O)N1CCC[C@H]1C(=O)N[C@@H](CCSC)C(=O)N[C@@H](CCCNC(=N)N)C(=O)N[C@@H](CC(=O)O)C(=O)N[C@@H](CCCCN)C(=O)N[C@@H](CC(=O)O)C(=O)O)[C@@H](C)O` [ErbB4 1150 18-mer] (HELM PEPTIDE1{P.R.G.E.L.D.E.E.G.[O=C([C@H](Cc1ccc(OP(=O)(O)O)cc1)N[*:1])[*:2]].M.T.P.M.R.D.K.D}$$$$V2.0), the Kd at VAV1 SH2 domain came to 0.86 µM; in [1], 6.19 µM.

Regarding `CC(C)C[C@H](NC(=O)[C@H](Cc1ccc(OP(=O)(O)O)cc1)NC(=O)[C@H](CC(C)C)NC(=O)[C@@H]1CCCN1C(=O)[C@H](CCC(=O)O)NC(=O)[C@H](CC(N)=O)NC(=O)[C@@H](NC(=O)[C@H](Cc1ccc(O)cc1)NC(=O)[C@H](CCC(=O)O)NC(=O)[C@H](CC(=O)O)NC(=O)[C@@H](N)CCC(=O)O)C(C)C)C(=O)N[C@@H](CC(N)=O)C(=O)N[C@H](C(=O)N[C@@H](Cc1ccccc1)C(=O)N[C@@H](C)C(=O)N[C@@H](CC(N)=O)C(=O)N[C@H](C(=O)N[C@@H](CC(=O)O)C(=O)O)[C@@H](C)O)[C@@H](C)O` [ErbB4 1208 18-mer] (HELM PEPTIDE1{E.D.E.Y.V.N.E.P.L.[O=C([C@H](Cc1ccc(OP(=O)(O)O)cc1)N[*:1])[*:2]].L.N.T.F.A.N.T.D}$$$$V2.0), the Kd on HSH2D SH2 domain came to 1.14 µM; at SHC1 SH2 domain, 11 µM; at GRB2 SH2 domain it was 2.46 µM.

For orientation: Kd means the equilibrium constant for the complex coming apart. A lower Kd goes with tighter binding.
